Laboratory results: ChEMBL document CHEMBL3885861, “Open TG-GATES”

Species on record: Rattus norvegicus
Experiment: Open TG-GATES - Regimen: Single
Format: toxicity, organism-based, Sprague-Dawley
Design: regimen Single, gender Male, age 6 weeks
Conditions: in vivo, po, 15 mg/kg, route gavage; for TC / TP / gamma-GTP / ALP / ALT / AST / BUN / CRE / Ca / Cl / DBIL / GLC / IP / K / LDH / Na / PL / RALB / TBIL: tissue Plasma; for APTT / Bas / Eos / Fbg / Hb / Ht / Lym / MCH / MCHC / MCV / Mono / Neu / PT / Plat / RBC / Ret / WBC: tissue Blood; for KIDNEY_L / KIDNEY_R / KIDNEY_TOTAL: tissue Kidney; for LIVER: tissue Liver

`O=P1(N(CCCl)CCCl)NCCCO1` (stereo not given) [CYCLOPHOSPHAMIDE ANHYDROUS] gave a TC (3 h, dose level Low) of 68.6 mg/dL, a TP (3 h, dose level Low) of 5.2 g/dL and a gamma-GTP (3 h, dose level Low) of 1.2 IU/L. For the same compound, the TERMINAL_BW (6 h, dose level High) was 193.9 g, the TERMINAL_BW (6 h, dose level Low) was 190.6 g and the APTT (6 h, dose level High) was 21.7 s. It also gave a Bas (6 h, dose level High) of 0%, an Eos (6 h, dose level High) of 0.6% and a Fbg (6 h, dose level High) of 313.4 mg/dL. For the same compound, the Hb (6 h, dose level High) was 13.3 g/dL, the Ht (6 h, dose level High) was 39.9% and the Lym (6 h, dose level High) was 79.4%. For the same compound, the MCH (6 h, dose level High) was 21.5 pg, the MCHC (6 h, dose level High) was 33.3% and the MCV (6 h, dose level High) was 64.8 fL. For the same compound, the Mono (6 h, dose level High) was 2.2%, the Neu (6 h, dose level High) was 17.4% and the PT (6 h, dose level High) was 15.6 s. It also gave a Plat (6 h, dose level High) of 122.7 x10_4/uL, an RBC (6 h, dose level High) of 616.8 x10_4/ul and a Ret (6 h, dose level High) of 9%. For the same compound, the WBC (6 h, dose level High) was 68.2 x10_2/uL, the APTT (6 h, dose level Low) was 20.3 s and the Eos (6 h, dose level Low) was 1.2%. For the same compound, the Fbg (6 h, dose level Low) was 302 mg/dL, the Hb (6 h, dose level Low) was 13 g/dL and the Ht (6 h, dose level Low) was 38.9%. It also gave a Lym (6 h, dose level Low) of 80.6%, an MCH (6 h, dose level Low) of 20.9 pg and an MCHC (6 h, dose level Low) of 33.4%. For the same compound, the MCV (6 h, dose level Low) was 62.4 fL, the Mono (6 h, dose level Low) was 2.4% and the Neu (6 h, dose level Low) was 15.8%. It also gave a PT (6 h, dose level Low) of 13.9 s, a Plat (6 h, dose level Low) of 115.7 x10_4/uL and an RBC (6 h, dose level Low) of 624 x10_4/ul. The Ret (6 h, dose level Low) was 8.9%, the WBC (6 h, dose level Low) was 71.4 x10_2/uL and the KIDNEY_L (6 h, dose level High) was 0.8 g. It also gave a KIDNEY_R (6 h, dose level High) of 0.9 g, a KIDNEY_TOTAL (6 h, dose level High) of 1.7 g and a KIDNEY_R (6 h, dose level Low) of 0.8 g. It also gave an LIVER (6 h, dose level High) of 8.4 g, an LIVER (6 h, dose level Low) of 7.6 g and an ALP (6 h, dose level High) of 1569.4 IU/L. It also gave an ALT (6 h, dose level High) of 39.2 IU/L, an AST (6 h, dose level High) of 74.8 IU/L and a BUN (6 h, dose level High) of 10.2 mg/dL. For the same compound, the CRE (6 h, dose level High) was 0.1 mg/dL, the Ca (6 h, dose level High) was 10.7 mg/dL and the Cl (6 h, dose level High) was 106.8 meq/L. The DBIL (6 h, dose level High) was 0 mg/dL, the GLC (6 h, dose level High) was 185.8 mg/dL and the IP (6 h, dose level High) was 10.4 mg/dL. For the same compound, the K (6 h, dose level High) was 4.5 meq/L, the LDH (6 h, dose level High) was 216.8 IU/L and the Na (6 h, dose level High) was 143.2 meq/L. For the same compound, the PL (6 h, dose level High) was 144 mg/dL, the RALB (6 h, dose level High) was 2.9 g/dL and the TBIL (6 h, dose level High) was 0.032 mg/dL. The TC (6 h, dose level High) was 81.8 mg/dL, the TP (6 h, dose level High) was 5.4 g/dL and the gamma-GTP (6 h, dose level High) was 1.2 IU/L. It also gave an ALP (6 h, dose level Low) of 1365.4 IU/L, an ALT (6 h, dose level Low) of 33.2 IU/L and an AST (6 h, dose level Low) of 70.4 IU/L. It also gave a BUN (6 h, dose level Low) of 8.4 mg/dL, a CRE (6 h, dose level Low) of 0.2 mg/dL and a Ca (6 h, dose level Low) of 10.9 mg/dL. The Cl (6 h, dose level Low) was 107 meq/L, the DBIL (6 h, dose level Low) was 0.014 mg/dL and the GLC (6 h, dose level Low) was 168.2 mg/dL. It also gave an IP (6 h, dose level Low) of 9 mg/dL, a K (6 h, dose level Low) of 4.3 meq/L and an LDH (6 h, dose level Low) of 83.8 IU/L. The Na (6 h, dose level Low) was 142 meq/L, the PL (6 h, dose level Low) was 141.6 mg/dL and the RALB (6 h, dose level Low) was 2.5 g/dL. It also gave a TBIL (6 h, dose level Low) of 0.072 mg/dL, a TC (6 h, dose level Low) of 79 mg/dL and a TP (6 h, dose level Low) of 5.3 g/dL. It also gave a TERMINAL_BW (9 h, dose level High) of 185.5 g, a TERMINAL_BW (9 h, dose level Low) of 184.1 g and an APTT (9 h, dose level High) of 20.7 s. The Bas (9 h, dose level High) was 0%, the Eos (9 h, dose level High) was 0.8% and the Fbg (9 h, dose level High) was 320.4 mg/dL. The Hb (9 h, dose level High) was 13.2 g/dL, the Ht (9 h, dose level High) was 39.3% and the Lym (9 h, dose level High) was 78%. It also gave an MCH (9 h, dose level High) of 21 pg, an MCHC (9 h, dose level High) of 33.6% and an MCV (9 h, dose level High) of 62.4 fL. It also gave a Mono (9 h, dose level High) of 2.2%, a Neu (9 h, dose level High) of 19% and a PT (9 h, dose level High) of 16.2 s. It also gave a Plat (9 h, dose level High) of 113.9 x10_4/uL, an RBC (9 h, dose level High) of 631 x10_4/ul and a Ret (9 h, dose level High) of 7.3%. For the same compound, the WBC (9 h, dose level High) was 57.8 x10_2/uL, the APTT (9 h, dose level Low) was 16.7 s and the Eos (9 h, dose level Low) was 1%. The Fbg (9 h, dose level Low) was 285.6 mg/dL, the Hb (9 h, dose level Low) was 12.7 g/dL and the Ht (9 h, dose level Low) was 37.6%. The Lym (9 h, dose level Low) was 75%, the MCH (9 h, dose level Low) was 20.8 pg and the MCHC (9 h, dose level Low) was 33.7%. The MCV (9 h, dose level Low) was 61.8 fL, the Neu (9 h, dose level Low) was 21.4% and the PT (9 h, dose level Low) was 14 s. It also gave a Plat (9 h, dose level Low) of 120.4 x10_4/uL, an RBC (9 h, dose level Low) of 608.4 x10_4/ul and a Ret (9 h, dose level Low) of 8.8%. It also gave a WBC (9 h, dose level Low) of 67.8 x10_2/uL, a KIDNEY_L (9 h, dose level High) of 0.8 g and a KIDNEY_R (9 h, dose level High) of 0.9 g. For the same compound, the KIDNEY_TOTAL (9 h, dose level High) was 1.7 g, the KIDNEY_R (9 h, dose level Low) was 0.8 g and the KIDNEY_TOTAL (9 h, dose level Low) was 1.6 g. It also gave an LIVER (9 h, dose level High) of 7.5 g, an LIVER (9 h, dose level Low) of 6.9 g and an ALP (9 h, dose level High) of 1487.4 IU/L. For the same compound, the ALT (9 h, dose level High) was 34.8 IU/L, the AST (9 h, dose level High) was 67.4 IU/L and the BUN (9 h, dose level High) was 9.2 mg/dL. The CRE (9 h, dose level High) was 0.2 mg/dL, the Ca (9 h, dose level High) was 10.5 mg/dL and the Cl (9 h, dose level High) was 107.4 meq/L. For the same compound, the DBIL (9 h, dose level High) was 0.002 mg/dL, the GLC (9 h, dose level High) was 186 mg/dL and the IP (9 h, dose level High) was 10.1 mg/dL. For the same compound, the K (9 h, dose level High) was 3.9 meq/L, the LDH (9 h, dose level High) was 185.4 IU/L and the Na (9 h, dose level High) was 143.4 meq/L. It also gave a PL (9 h, dose level High) of 123.8 mg/dL, an RALB (9 h, dose level High) of 3 g/dL and a TBIL (9 h, dose level High) of 0.032 mg/dL. It also gave a TC (9 h, dose level High) of 69.2 mg/dL and a TP (9 h, dose level High) of 5.4 g/dL.
